Measured values as given in a melting point compilation (Tetko et al.; mined from patent text by program, amines drawn as free bases though some values may be those of a salt).

SMILES	melting point [°C]
CCCCC(C(=O)OC)(C(=O)OC)c1nc(C)nc2c1c(SC)nn2-c1c(Cl)cc(Cl)cc1Cl	146 to 152
CCCCc1oc2ccccc2c1C(=O)Nc1ccc(-c2ccc(OCC#N)cc2)cc1	143 to 144
Cc1cc(N)c(C)c(Cl)c1Oc1ccc(C(=O)c2ccc(Cl)cc2)cc1	113 to 122
CN(C)Cc1cc(C(=O)c2cccn2C)cc(C(C)(C)C)c1O	174
CCCCCCCNc1ccncc1	50 to 52
N#CCOC(=O)c1ccc(CNC(=O)CCCCCN2C(=O)C=CC2=O)cc1O	141 to 144
CC(C)CC(CO)NC(=O)C(Cc1c[nH]cn1)NC(=O)C(Cc1cccc2ccccc12)NC(=O)COc1cccc2ccccc12 (centres undefined)	215 to 217
CSc1ncc(C(=O)NC2CC2)c(Nc2ccc3cn[nH]c3c2)n1	> 270
N#Cc1ccc(NC(=S)N2CCN(c3cnccn3)CC2)cc1	208 to 210
CC(O)(c1nc(-c2ccc(F)cc2)c(-c2ccc(F)cc2)[nH]1)C(F)(F)F (centres undefined)	191 to 192
COc1cc2nc(N3CCN(C(=O)c4nnc(SC)o4)CC3)nc(N)c2cc1OC	228 to 230
CCCOC(=Nc1sccc1C#N)OCCC	65 to 67
CCNC(=O)Cc1cc(Oc2ccc(C(F)(F)F)cc2Cl)ccc1[N+](=O)[O-]	189
COC(=O)C(=C(C)C)N1CC(NC(=O)COc2ccccc2)C1=O (centres undefined)	154 to 155
CCSc1ccc2c3c([nH]c2c1)CCCCC3C (centres undefined)	44
O=C1c2cccc3c(N4CCCC4)c(F)cc(c23)C(=O)N1O	224 to 226
CC(C)(C)c1cc(C=C2CC(C)(C)N(C(N)=O)C2=O)cc(C(C)(C)C)c1O	200 to 203
O=C(O)c1ccc(OCc2ccc(Cl)cc2)cc1OCc1ccccc1	150 to 152
COCC(C(=O)O)N(CCN(CC(=O)O)C(COC)C(=O)O)CC(=O)O (centres undefined)	215
O=C(CCc1ccc(F)cc1)Cn1ccnc1	69 to 70
COC(=O)c1nc(CN(C)C)n(-c2ccc(Cl)cc2C(=O)c2ccccc2Cl)n1	131 to 134
COc1cc(CO)c(OC)c2ccccc12	63 to 66
COc1cnc(C(=O)Cc2c(Cl)cncc2Cl)cc1OC1CCCC1	132
Cc1ccccc1-c1cn(C)cc(-c2cccc(C(F)(F)F)c2)c1=S	193 to 195
O=c1[nH]c2sccc2c(=O)n1CCN1CCC(=C(c2ccc(F)cc2)c2ccc(F)cc2)CC1	205 to 207

SMILES	melting point [°C]
Cc1cc(COc2ccc(C(=O)NC[C@](O)(C(N)=O)N3CCN(Cc4ccccc4)CC3)cc2)c2ccccc2n1	169
Nc1cc2c(cc1[N+](=O)[O-])CCC2	131 to 132
O=[N+]([O-])c1cc(CC(O)(Cn2cncn2)Cn2cncn2)ccc1Cl	136 to 137
COCOc1ccc(CCCOc2c(CC(=O)O)cccc2OC)c(Oc2ccc(C(F)(F)F)cn2)c1	70 to 72
N#CCCNC(=O)c1ccnc(-c2cccc3nn(Cc4cccc(C(F)(F)F)c4)cc23)c1	147 to 148
Cn1c(COc2ccc(CC3SC(=O)NC3=O)cc2)nc2ccc(Oc3ccc(NC(=O)Nc4ccc(C(F)(F)F)cc4)cc3)cc21 (centres undefined)	179 to 180
CCCN(c1nc(-c2ccc(OC)cc2Cl)c(C)s1)c1cc(CO)ccc1OC	115
Cc1cn(-c2cc(NC(=O)c3ccc(C)c(C#Cc4ccc(NC(C)C)nn4)c3)cc(C(F)(F)F)c2)cn1	192 to 194
Cn1c(C(F)(F)F)cc(=O)n(-c2ccc3snc(C(=O)O)c3c2)c1=O	149 to 152
O=c1[nH]cnc2cc(C(c3ccccc3)n3ccnc3)ccc12 (centres undefined)	205
CON(C(=O)c1cn(C)nc1C(F)F)C(C)C1CCC(C)=CC1(C)C (centres undefined)	95 to 105
CCOC(=O)c1c(Cn2cncn2)nc2cc(OC)c(OC)cc2c1-c1ccc(O)c(O)c1	122 to 124
O=C1c2ccccc2C(=O)c2c(O)c3c(c(O)c21)CCCC3	194 to 196
C[C@H](NC(=O)OCc1ccccc1)C(=O)N1CCC[C@H]1C(=O)NC1CCCCCC1	110 to 113
NNC(=O)c1ccc2[nH]nnc2c1	295 to 296
CN(C)CCOc1ccc2[nH]c(C(=O)N3CC(CCl)c4c3cc([N+](=O)[O-])c3cc(S(C)(=O)=O)ccc43)cc2c1 (centres undefined)	250 to 252
O=C1NCC2=C1c1ccc(Cl)cc1C(c1ccccc1Cl)=NC2	195 to 197
CC1C=C(Nc2ccc(OC(F)(F)F)cc2)N(C)N1 (centres undefined)	80 to 82
COc1ccc(I)cc1CCCO	68 to 70
Cc1cc(C)nc(NC(=O)NS(=O)(=O)c2ccccc2-c2ccccc2)n1	78
O=C(O)CCc1cc2cc(Cl)ccc2n1S(=O)(=O)c1ccc2c(c1)CCN2	157
Fc1ccc(NN=Cc2cccs2)cc1	138 to 140
O=C(Nc1ccc(C(F)(F)F)cc1)N1N=C2c3ccc(C(F)(F)F)cc3OC3CCCC1C23 (centres undefined)	194 to 195
CC(CCCC(C)C1C(O)CC2C3CC=C4CC(O)CCC4(C)C3CCC21C)CN1C(=O)c2ccccc2C1=O (centres undefined)	134 to 136
